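Where inhibition never reached the appropriate level, the endpoint shown equals the highest concentration tested. Otherwise, values were interpolated linearly from a five-concentration, 48-hour dose response in 96-well plates. The concentration for 50% growth inhibition is given as GI50.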 Activity calls are given as the source filed them. Rule as the data show it: active = GI50 up to about 1.1 µM and inactive = higher.
Tests used:
Test in all cases: inhibition of tumour cell growth, NCI panel, 48 h
786-0 = test system: 786-0
A498 = test system: A498
A549 = test system: A549
ACHN = test system: ACHN
BT-549 = test system: BT-549
CAKI-1 = test system: CAKI-1
CCRF-CEM = test system: CCRF-CEM
COLO 205 = test system: COLO 205
DU-145 = test system: DU-145
EKVX = test system: EKVX
HCT-116 = test system: HCT-116
HCT-15 = test system: HCT-15
HOP-62 = test system: HOP-62
HOP-92 = test system: HOP-92
HT-29 = test system: HT-29
Hs-578T = test system: Hs-578T
IGROV-1 = test system: IGROV-1
K562 = test system: K562
KM12 = test system: KM12
LOX IMVI = test system: LOX IMVI
M14 = test system: M14
MCF7 = test system: MCF7
MDA-MB-231 = test system: MDA-MB-231
MDA-MB-435 = test system: MDA-MB-435
MDA-N = test system: MDA-N
MOLT-4 = test system: MOLT-4
Malme-3M = test system: Malme-3M
NCI-H23 = test system: NCI-H23
NCI-H460 = test system: NCI-H460
NCI-H522 = test system: NCI-H522
NCI/ADR-RES = test system: NCI/ADR-RES
OVCAR-3 = test system: OVCAR-3
OVCAR-4 = test system: OVCAR-4
OVCAR-5 = test system: OVCAR-5
OVCAR-8 = test system: OVCAR-8
PC-3 = test system: PC-3
RPMI-8226 = test system: RPMI-8226
RXF 393 = test system: RXF 393
SF-268 = test system: SF-268
SF-295 = test system: SF-295
SF-539 = test system: SF-539
SK-MEL-28 = test system: SK-MEL-28
SK-MEL-2 = test system: SK-MEL-2
SK-MEL-5 = test system: SK-MEL-5
SK-OV-3 = test system: SK-OV-3
SN12C = test system: SN12C
SNB-19 = test system: SNB-19
SNB-75 = test system: SNB-75
SR = test system: SR
SW-620 = test system: SW-620
T47D = test system: T47D
TK-10 = test system: TK-10
U-251 = test system: U-251
UACC-257 = test system: UACC-257
UACC-62 = test system: UACC-62
UO-31 = test system: UO-31
HCC 2998 = test system: HCC 2998
HL-60 = test system: HL-60
NCI-H226 = test system: NCI-H226

## Cc1cc(C)c(O)c(Cc2cccc(Cc3cc(C)cc(C)c3O)c2O)c1
786-0
  GI50: > 100 µM (inactive)
A498
  GI50: > 100 µM (inactive)
A549
  GI50: > 100 µM (inactive)
ACHN
  GI50: > 100 µM (inactive)
BT-549
  GI50: > 100 µM (inactive)
CAKI-1
  GI50: > 100 µM (inactive)
CCRF-CEM
  GI50: 35.5 µM (inactive)
COLO 205
  GI50: > 100 µM (inactive)
DU-145
  GI50: > 100 µM (inactive)
EKVX
  GI50: > 100 µM (inactive)
HCT-116
  GI50: > 100 µM (inactive)
HCT-15
  GI50: > 100 µM
HOP-62
  GI50: > 100 µM (inactive)
HOP-92
  GI50: > 100 µM (inactive)
HT-29
  GI50: > 100 µM (inactive)
Hs-578T
  GI50: > 100 µM (inactive)
IGROV-1
  GI50: > 100 µM (inactive)
K562
  GI50: 35.9 µM (inactive)
KM12
  GI50: > 100 µM (inactive)
LOX IMVI
  GI50: > 100 µM (inactive)
M14
  GI50: > 100 µM (inactive)
MCF7
  GI50: > 100 µM (inactive)
MDA-MB-231
  GI50: > 100 µM (inactive)
MDA-MB-435
  GI50: > 100 µM (inactive)
MDA-N
  GI50: > 100 µM (inactive)
MOLT-4
  GI50: > 100 µM (inactive)
Malme-3M
  GI50: > 100 µM (inactive)
NCI-H23
  GI50: > 100 µM (inactive)
NCI-H460
  GI50: > 100 µM (inactive)
NCI-H522
  GI50: > 100 µM (inactive)
NCI/ADR-RES
  GI50: > 100 µM (inactive)
OVCAR-3
  GI50: > 100 µM (inactive)
OVCAR-4
  GI50: > 100 µM (inactive)
OVCAR-5
  GI50: > 100 µM (inactive)
OVCAR-8
  GI50: > 100 µM (inactive)
PC-3
  GI50: > 100 µM (inactive)
RPMI-8226
  GI50: > 100 µM (inactive)
RXF 393
  GI50: > 100 µM (inactive)
SF-268
  GI50: > 100 µM (inactive)
SF-295
  GI50: > 100 µM (inactive)
SF-539
  GI50: > 100 µM (inactive)
SK-MEL-28
  GI50: > 100 µM (inactive)
SK-MEL-2
  GI50: > 100 µM (inactive)
SK-MEL-5
  GI50: > 100 µM (inactive)
SK-OV-3
  GI50: > 100 µM (inactive)
SN12C
  GI50: > 100 µM (inactive)
SNB-19
  GI50: > 100 µM (inactive)
SNB-75
  GI50: > 100 µM (inactive)
SR
  GI50: 77.6 µM (inactive)
SW-620
  GI50: > 100 µM (inactive)
T47D
  GI50: > 100 µM (inactive)
TK-10
  GI50: > 100 µM (inactive)
U-251
  GI50: > 100 µM (inactive)
UACC-257
  GI50: > 100 µM (inactive)
UACC-62
  GI50: > 100 µM (inactive)
UO-31
  GI50: > 100 µM (inactive)

## COC(=O)[C@@H]1C[C@]2(Br)c3ccccc3N(S(=O)(=O)c3ccccc3)[C@@H]2N1C(=O)OC
786-0
  GI50: > 100 µM (inactive)
A498
  GI50: 59.2 µM (inactive)
A549
  GI50: > 100 µM (inactive)
ACHN
  GI50: > 100 µM (inactive)
BT-549
  GI50: > 100 µM (inactive)
CAKI-1
  GI50: 59.8 µM (inactive)
CCRF-CEM
  GI50: > 100 µM (inactive)
DU-145
  GI50: 43.7 µM (inactive)
EKVX
  GI50: 74.1 µM (inactive)
HCC 2998
  GI50: 84.3 µM (inactive)
HCT-116
  GI50: > 100 µM (inactive)
HCT-15
  GI50: 67.3 µM
HL-60
  GI50: > 100 µM (inactive)
HOP-62
  GI50: > 100 µM (inactive)
HOP-92
  GI50: > 100 µM (inactive)
HT-29
  GI50: > 100 µM (inactive)
Hs-578T
  GI50: 83.9 µM (inactive)
IGROV-1
  GI50: > 100 µM (inactive)
K562
  GI50: > 100 µM (inactive)
KM12
  GI50: > 100 µM (inactive)
MCF7
  GI50: > 100 µM (inactive)
MDA-MB-231
  GI50: > 100 µM (inactive)
MDA-MB-435
  GI50: > 100 µM (inactive)
MDA-N
  GI50: > 100 µM (inactive)
MOLT-4
  GI50: > 100 µM (inactive)
Malme-3M
  GI50: > 100 µM (inactive)
NCI-H226
  GI50: 85.7 µM (inactive)
NCI-H23
  GI50: 37.3 µM (inactive)
NCI-H460
  GI50: > 100 µM (inactive)
NCI-H522
  GI50: > 100 µM (inactive)
NCI/ADR-RES
  GI50: > 100 µM (inactive)
OVCAR-3
  GI50: > 100 µM (inactive)
OVCAR-4
  GI50: 73.8 µM (inactive)
OVCAR-5
  GI50: 51.3 µM (inactive)
OVCAR-8
  GI50: > 100 µM (inactive)
PC-3
  GI50: > 100 µM (inactive)
RPMI-8226
  GI50: 93.1 µM (inactive)
RXF 393
  GI50: 23 µM (inactive)
SF-268
  GI50: > 100 µM (inactive)
SF-539
  GI50: > 100 µM (inactive)
SK-MEL-28
  GI50: > 100 µM (inactive)
SK-MEL-2
  GI50: 74.5 µM (inactive)
SK-MEL-5
  GI50: > 100 µM (inactive)
SK-OV-3
  GI50: > 100 µM (inactive)
SN12C
  GI50: > 100 µM (inactive)
SNB-19
  GI50: > 100 µM (inactive)
SNB-75
  GI50: 66.8 µM (inactive)
SR
  GI50: > 100 µM (inactive)
SW-620
  GI50: > 100 µM (inactive)
T47D
  GI50: > 100 µM (inactive)
TK-10
  GI50: > 100 µM (inactive)
U-251
  GI50: > 100 µM (inactive)
UACC-257
  GI50: 0.0285 µM (active)
UACC-62
  GI50: 62.1 µM (inactive)
UO-31
  GI50: > 100 µM (inactive)

Reference: ChEMBL document CHEMBL1201862, “PubChem BioAssay data set” (2004)
